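In this assay, cells in 96-well plates receive the compound at five concentrations for 48 hours. Endpoints are linearly interpolated between the surrounding concentrations. GI50: concentration for 50% inhibition of growth.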 Active and inactive are the calls of the source. No stated cut-off is given here; in the data, active = GI50 up to about 1.1 µM and inactive = higher.
Experiments:
Assay in all cases: growth of human tumour cells (NCI), 48 h
786-0 = test system: 786-0
A498 = test system: A498
A549 = test system: A549
ACHN = test system: ACHN
CAKI-1 = test system: CAKI-1
CCRF-CEM = test system: CCRF-CEM
COLO 205 = test system: COLO 205
DU-145 = test system: DU-145
EKVX = test system: EKVX
HCC 2998 = test system: HCC 2998
HCT-116 = test system: HCT-116
HCT-15 = test system: HCT-15
HOP-62 = test system: HOP-62
HOP-92 = test system: HOP-92
HT-29 = test system: HT-29
IGROV-1 = test system: IGROV-1
K562 = test system: K562
KM12 = test system: KM12
LOX IMVI = test system: LOX IMVI
M14 = test system: M14
MCF7 = test system: MCF7
MDA-MB-231 = test system: MDA-MB-231
MDA-MB-435 = test system: MDA-MB-435
MDA-N = test system: MDA-N
MOLT-4 = test system: MOLT-4
Malme-3M = test system: Malme-3M
NCI-H226 = test system: NCI-H226
NCI-H23 = test system: NCI-H23
NCI-H522 = test system: NCI-H522
NCI/ADR-RES = test system: NCI/ADR-RES
OVCAR-3 = test system: OVCAR-3
OVCAR-4 = test system: OVCAR-4
OVCAR-5 = test system: OVCAR-5
OVCAR-8 = test system: OVCAR-8
PC-3 = test system: PC-3
RPMI-8226 = test system: RPMI-8226
SF-268 = test system: SF-268
SF-295 = test system: SF-295
SF-539 = test system: SF-539
SK-MEL-28 = test system: SK-MEL-28
SK-MEL-2 = test system: SK-MEL-2
SK-MEL-5 = test system: SK-MEL-5
SK-OV-3 = test system: SK-OV-3
SN12C = test system: SN12C
SNB-19 = test system: SNB-19
SNB-75 = test system: SNB-75
SR = test system: SR
SW-620 = test system: SW-620
TK-10 = test system: TK-10
U-251 = test system: U-251
UACC-257 = test system: UACC-257
UACC-62 = test system: UACC-62
UO-31 = test system: UO-31
RXF 393 = test system: RXF 393
Hs-578T = test system: Hs-578T

Measured: GI50

C=C(C)C(=O)[C@@]12C(=O)[C@@H](C)CC[C@H]1[C@H](C)C[C@@H]2C=C(C)C
19.9 µM: HCT-15
inactive: 786-0 20.1 µM | A498 52.4 µM | A549 32.7 µM | ACHN 12.9 µM | CAKI-1 29.4 µM | CCRF-CEM 23.1 µM | COLO 205 18.8 µM | DU-145 38.4 µM | EKVX 30.5 µM | HCC 2998 14.8 µM | HCT-116 14.9 µM | HOP-62 34.4 µM | HOP-92 25.8 µM | HT-29 14.6 µM | IGROV-1 27.5 µM | K562 29.6 µM | KM12 23.9 µM | LOX IMVI 18.7 µM | M14 55.6 µM | MCF7 23.9 µM | MDA-MB-231 21.9 µM | MDA-MB-435 20.3 µM | MDA-N 24.1 µM | MOLT-4 15.8 µM | Malme-3M 18 µM | NCI-H23 15.4 µM | NCI-H522 14.6 µM | NCI/ADR-RES 27.8 µM | OVCAR-3 19.5 µM | OVCAR-4 28.8 µM | OVCAR-5 28.4 µM | OVCAR-8 30.7 µM | PC-3 24 µM | RPMI-8226 27.9 µM | SF-268 17.2 µM | SF-295 33.9 µM | SF-539 19.9 µM | SK-MEL-28 34 µM | SK-MEL-2 13.8 µM | SK-MEL-5 19.4 µM | SK-OV-3 37 µM | SN12C 20.8 µM | SNB-19 12.6 µM | SNB-75 34.8 µM | SR > 10 µM | SW-620 20.2 µM | TK-10 47.6 µM | U-251 23.6 µM | UACC-257 15.2 µM | UACC-62 22.9 µM | UO-31 20.2 µM
active: NCI-H226 < 0.01 µM

CC1(C)CC(=O)C(C(CC(c2ccccc2)c2cc3c(cc2O)OCO3)C2=C(O)CC(C)(C)CC2=O)=C(O)C1 (stereo not drawn)
inactive: A498 > 10 µM | A549 > 10 µM | ACHN > 10 µM | CAKI-1 > 10 µM | COLO 205 > 10 µM | DU-145 > 10 µM | EKVX > 10 µM | HCT-116 > 10 µM | HOP-92 > 10 µM | HT-29 > 10 µM | IGROV-1 > 10 µM | KM12 > 10 µM | M14 > 10 µM | MDA-MB-231 > 10 µM | MDA-MB-435 > 10 µM | MDA-N > 10 µM | NCI-H226 > 10 µM | NCI-H23 > 10 µM | NCI/ADR-RES > 10 µM | OVCAR-3 > 10 µM | OVCAR-4 > 10 µM | OVCAR-5 > 10 µM | OVCAR-8 > 10 µM | PC-3 > 10 µM | RXF 393 > 10 µM | SF-268 > 10 µM | SF-295 > 10 µM | SF-539 > 10 µM | SK-MEL-5 > 10 µM | SN12C > 10 µM | SNB-19 > 10 µM | SNB-75 > 10 µM | SW-620 > 10 µM | TK-10 > 10 µM | U-251 > 10 µM | UO-31 > 10 µM
> 10 µM: HCT-15

CSC1=N/C(=C\c2ccco2)C(=O)N1CN1CCCCC1
38.4 µM: HCT-15
inactive: 786-0 54.6 µM | A498 > 100 µM | A549 > 100 µM | ACHN 69.5 µM | COLO 205 38.4 µM | DU-145 81.3 µM | EKVX > 100 µM | HCT-116 50.4 µM | HOP-62 > 100 µM | HOP-92 28.4 µM | HT-29 51.6 µM | Hs-578T > 100 µM | IGROV-1 89.9 µM | K562 59.6 µM | KM12 > 100 µM | LOX IMVI 33.7 µM | M14 85.3 µM | MCF7 17.3 µM | MDA-MB-231 > 100 µM | MDA-MB-435 > 100 µM | MDA-N > 100 µM | MOLT-4 71.3 µM | Malme-3M > 100 µM | NCI-H226 > 100 µM | NCI-H23 > 100 µM | NCI-H522 > 100 µM | NCI/ADR-RES > 100 µM | OVCAR-3 > 100 µM | OVCAR-5 > 100 µM | OVCAR-8 75.9 µM | PC-3 > 100 µM | RPMI-8226 35.6 µM | SF-268 92.3 µM | SF-295 > 100 µM | SK-MEL-28 > 100 µM | SK-MEL-2 > 100 µM | SK-MEL-5 55.1 µM | SK-OV-3 > 100 µM | SN12C 65.3 µM | SNB-19 87.3 µM | SNB-75 > 100 µM | SR > 100 µM | SW-620 36.1 µM | TK-10 > 100 µM | U-251 > 100 µM | UACC-62 33.1 µM | UO-31 > 100 µM

From ChEMBL document CHEMBL1201862, “PubChem BioAssay data set” (2004)
